{
  "source": "patent US12329158B2",
  "about": "“Large-scale methods of uniformly coating packaging surfaces with a volatile antimicrobial to preserve food freshness” (AGROFRESH INC., priority 2013, dated 2025)",
  "key": {"Botrytis cinerea": {"test_system": "Botrytis cinerea", "experiment": "Clamshells treated by sublimation; strawberries (Example 5)", "type": "in vivo", "details": "5 mg", "procedure": "Five milligrams of Compound A was dissolved in 1 ml of ethanol prior to being uniformly administered to the interior of the clamshell by painting or spraying, and then dried for 5 minutes. After coating the clamshells with Compound A using various application techniques (i.e., sublimation, spraying, or painting), eight ethanol-washed strawberries were placed in the clamshell with stem end facing downwards. Each strawberry fruit was wounded using a T15 screwdriver tip to a uniform depth of eight mm (8 mm). […] Uninoculated strawberries were removed from their commercial package, and directly transferred into treated clamshells without any washing or inoculation steps.\nTreated clamshells lids were closed, and then placed at 1° C. for an initial time period of 5 days. Clamshells were then removed from low temperature, and held for a second time period of 6 days at room temperature where the point of inoculation on the strawberry fruits was assessed for indication of disease incidence reported as a percentage (%). Severity of disease incidence was also reported.\nThis in vivo assay was used to evaluate the ability of Compound A to volatilize from a clamshell in order to control or inhibit fruit infection by pathogenic microorganism, Botrytis cinerea. This experiment was conducted exactly as described in Example 1, with a few exceptions. After equilibrating the clamshell overnight at 21° C., Compound A was administered to the clamshell by sublimation only. Compound A was sublimed onto the surface of the clamshell at a final treatment rate of 5 mg/clamshell. Strawberries were inoculated with Botrytis cinerea, placed within the clamshell for an initial time period of 6 days, and assessed for disease incidence and severity over a second time period of 7 days as described in Example 1."}, "M. piriformis": {"test_system": "M. piriformis", "experiment": "Volatile MIC assay (Example 11)", "type": "cell-based", "details": "Mucor piriformis"}},
  "data": [
    {"smiles": "OB1OCc2cc(F)ccc21", "note": "[Compound A, 5-fluoro-1,3-dihydro-1-hydroxy-2,1-benzoxaborole]", "values": [
      {"measurement": "Gray Mold Incidence (%)", "setting": "Botrytis cinerea; Inoculated Fruit, Day 0", "value": 0.0, "unit": "%"},
      {"measurement": "Gray Mold Severity (0-4)", "setting": "Botrytis cinerea; Inoculated Fruit, Day 0", "value": 0.0},
      {"measurement": "Gray Mold Incidence (%)", "setting": "Botrytis cinerea; Inoculated Fruit, Day 1", "value": 0.0, "unit": "%"},
      {"measurement": "Gray Mold Severity (0-4)", "setting": "Botrytis cinerea; Inoculated Fruit, Day 1", "value": 0.0},
      {"measurement": "Gray Mold Incidence (%)", "setting": "Botrytis cinerea; Inoculated Fruit, Day 2", "value": 0.0, "unit": "%"},
      {"measurement": "Gray Mold Severity (0-4)", "setting": "Botrytis cinerea; Inoculated Fruit, Day 2", "value": 0.0},
      {"measurement": "Gray Mold Incidence (%)", "setting": "Botrytis cinerea; Inoculated Fruit, Day 3", "value": 0.0, "unit": "%"},
      {"measurement": "Gray Mold Severity (0-4)", "setting": "Botrytis cinerea; Inoculated Fruit, Day 3", "value": 0.0},
      {"measurement": "Gray Mold Incidence (%)", "setting": "Botrytis cinerea; Inoculated Fruit, Day 4", "value": 0.0, "unit": "%"},
      {"measurement": "Gray Mold Severity (0-4)", "setting": "Botrytis cinerea; Inoculated Fruit, Day 4", "value": 0.0},
      {"measurement": "Gray Mold Incidence (%)", "setting": "Botrytis cinerea; Inoculated Fruit, Day 5", "value": 16.7, "unit": "%"},
      {"measurement": "Gray Mold Severity (0-4)", "setting": "Botrytis cinerea; Inoculated Fruit, Day 5", "value": 0.1},
      {"measurement": "Gray Mold Incidence (%)", "setting": "Botrytis cinerea; Inoculated Fruit, Day 6", "value": 18.8, "unit": "%"},
      {"measurement": "Gray Mold Severity (0-4)", "setting": "Botrytis cinerea; Inoculated Fruit, Day 6", "value": 0.2},
      {"measurement": "Gray Mold Incidence (%)", "setting": "Botrytis cinerea; Inoculated Fruit, Day 7", "value": 16.7, "unit": "%"},
      {"measurement": "Gray Mold Severity (0-4)", "setting": "Botrytis cinerea; Inoculated Fruit, Day 7", "value": 0.3},
      {"measurement": "Gray Mold Incidence (%)", "setting": "Botrytis cinerea; Uninoculated Fruit, Day 0", "value": 0.0, "unit": "%"},
      {"measurement": "Gray Mold Severity (0-4)", "setting": "Botrytis cinerea; Uninoculated Fruit, Day 0", "value": 0.0},
      {"measurement": "Gray Mold Incidence (%)", "setting": "Botrytis cinerea; Uninoculated Fruit, Day 1", "value": 2.6, "unit": "%"},
      {"measurement": "Gray Mold Severity (0-4)", "setting": "Botrytis cinerea; Uninoculated Fruit, Day 1", "value": 0.4},
      {"measurement": "Gray Mold Incidence (%)", "setting": "Botrytis cinerea; Uninoculated Fruit, Day 2", "value": 0.1, "unit": "%"},
      {"measurement": "Gray Mold Severity (0-4)", "setting": "Botrytis cinerea; Uninoculated Fruit, Day 2", "value": 1.0},
      {"measurement": "Gray Mold Incidence (%)", "setting": "Botrytis cinerea; Uninoculated Fruit, Day 3", "value": 26.3, "unit": "%"},
      {"measurement": "Gray Mold Severity (0-4)", "setting": "Botrytis cinerea; Uninoculated Fruit, Day 3", "value": 1.0},
      {"measurement": "Gray Mold Incidence (%)", "setting": "Botrytis cinerea; Uninoculated Fruit, Day 4", "value": 34.1, "unit": "%"},
      {"measurement": "Gray Mold Severity (0-4)", "setting": "Botrytis cinerea; Uninoculated Fruit, Day 4", "value": 1.0},
      {"measurement": "Gray Mold Incidence (%)", "setting": "Botrytis cinerea; Uninoculated Fruit, Day 5", "value": 40.0, "unit": "%"},
      {"measurement": "Gray Mold Severity (0-4)", "setting": "Botrytis cinerea; Uninoculated Fruit, Day 5", "value": 1.3},
      {"measurement": "Gray Mold Incidence (%)", "setting": "Botrytis cinerea; Uninoculated Fruit, Day 6", "value": 43.3, "unit": "%"},
      {"measurement": "Gray Mold Severity (0-4)", "setting": "Botrytis cinerea; Uninoculated Fruit, Day 6", "value": 1.3},
      {"measurement": "Gray Mold Incidence (%)", "setting": "Botrytis cinerea; Uninoculated Fruit, Day 7", "value": 54.1, "unit": "%"},
      {"measurement": "Gray Mold Severity (0-4)", "setting": "Botrytis cinerea; Uninoculated Fruit, Day 7", "value": 1.6},
      {"measurement": "MIC", "setting": "M. piriformis", "value": 1.1, "unit": "µg/mL"}
    ]}
  ]
}
